Measured values from US20070191490A1, “Withacnistin compounds for treatment of cancer” (priority 2006, published 2007).
“Also recorded” adds a separate entry of the source.

Legend:
phosphotyrosine-STAT3 = assay: Inhibition of phosphotyrosine-STAT3 levels in tumor cell lines (Western blotting); format: cell-based, human; conditions: for levels of P-STAT3: 10 μM, 4 hours; for IC50: Wit tested as withacnistin mixture; for P-STAT3 levels: A549 cells (FIG. 8A); for potency compared with the withacnistin mixture (P-STAT3 suppression): A549 and MDA-MB-468 cells
Description: (§1) Western blotting. Treated cell samples were lysed in 30 mM HEPES, pH 7.5, 10 mM NaCl, 5 mM MgCl2, 25 mM NaF, 1 mM EGTA, 1% Triton X-100, 10% glycerol, 2 mM sodium orthovanadate, 10 μg/ml aprotinin, 10μ/ml soybean trypsin inhibitor, 25 μg/ml leupeptin, 2 mM PMSF, and 6.4 mg/ml p-nitrophenylphosphate. Phospho-STAT3, phospho-AKT, phospho-Src, and phospho-p42/p44 MAPK antibodies were obtained from Cell Signaling Technologies (Cambridge, Mass., USA). Phospho-JNK and whole STAT3 antibodies were purchased from Santa Cruz Biotechnology (Santa Cruz, Calif., USA); phospho-JAK2 antibody came from Upstate Biotechnology (Lake Placid, N.Y., USA). Membranes were blocked in either 5% milk in phosphate-buffered saline (PBS), pH 7.4, containing 0.1% Tween-20 (PBS-T) or 1% BSA in tris-buffered saline (TBS), pH 7.5, containing 0.1% Tween-20 (TBS-T). Phospho-specific antibodies (excepting P-MAPK and P-JNK) were incubated in 1% BSA in TBS-T while all other antibodies were diluted in 5% milk in PBS-T for either 2 h at room temperature or overnight at 4° C. HRP-conjugated secondary antibodies (Jackson ImmunoResearch, West Grove, Pa., USA) were diluted in 5% milk in either PBS-T or TBS-T at 1:1000 dilution for 1 h at room temperature. Western blots were visualized using enhanced chemiluminescence.
(§2) To this end, A549 cells (a human non-small-cell lung carcinoma line) were treated with either vehicle, cucurbitacin analogs A, B, E, or I, or withacnistin mixture (10 ∥M) for 4 hours and the cell lysates processed for Western blotting with antiphosphotyrosine STAT3 (Y705) antibody or antiphosphotyrosine JAK2 (Y1007, Y1008) antibody as described under Materials and Methods.
(§3) As further support of the specific antiphosphotyrosine STAT3, but not antiphosphotyrosine JAK2, activity of withacnistin, A549 cells, as well as two breast carcinoma cell lines (MDA-MB-435 and MDA-MB-468) that also express constitutively activated JAK2 and STAT3, were treated with the withacnistin mixture at various concentrations, and determined IC50 values of inhibition of STAT3 and JAK2 activation.

phosphotyrosine-JAK2 = assay: Inhibition of phosphotyrosine-JAK2 levels in tumor cell lines (Western blotting); format: cell-based, human; conditions: for levels of P-JAK2: 10 μM, 4 hours; for IC50: Wit tested as withacnistin mixture; for P-JAK2 levels: A549 cells (FIG. 8A)
Description: as §1, §2, §3

phospho-JNK = phospho-JNK levels in A549 cells (Western blotting); format: cell-based, human; conditions: 10 μM, 4 hours
Description: as §1, with “Western blots were visualized using enhanced chemiluminescence.” left out
It was next determined whether withacnistin and the Cuc analogs are selective for the JAK2/STAT3 pathway over other signal transduction pathways. […]

A549 cells [1] = assay: Trypan blue exclusion assay (tumor cell death); format: cell-based, human; conditions: 10 μM, 24 h
Description: In vitro cellular proliferation and TUNEL assays. Subconfluent A549, MDA-MB-435, MDA-MB-453, MDAMB-468, v-Src transformed NIH 3T3 (v-Src/3T3), H-Ras transformed NIH 3T3 (H-Ras/3T3), and vector NIH 3T3 cells were grown in the presence of 10 μM cucurbitacin A, cucurbitacin I, withacnistin mixture, or DMSO vehicle control. After 24 hours, cells were harvested by trypsinization and counted via trypan blue exclusion assay to determine cellular viability. In all, 75,000-150,000 cells (depending on cell line) were then spun onto glass slides using a Cytospin 3 centrifuge (Thermo Shandon Inc., Pittsburgh, Pa., USA). […] TUNELpositive nuclei were counted and compared to DAPI-stained nuclei to determine the percent induction of apoptosis by the different cucurbitacin compounds. Statistical significance between control and treated tumors were evaluated by using Student's t-test.
(§4) The next objective was to determine whether the ability of the cucurbitacins and withacnistin to induce apoptosis is dependent on suppression of PJAK2 and/or P-STAT3 levels. To this end, A549 cells were treated with vehicle control, or cucurbitacins (10 μM), or the withacnistin mixture (10 μM) for 24 h, harvested the cells, and determined tumor cell death (trypan blue exclusion) and apoptosis (TUNEL) as described under Materials and methods.

A549 cells [2] = assay: TUNEL apoptosis assay, A549; format: cell-based, human; conditions: for apoptosis (TUNEL): 10 μM, 24 h
Description: (§5) In vitro cellular proliferation and TUNEL assays. Subconfluent A549, MDA-MB-435, MDA-MB-453, MDAMB-468, v-Src transformed NIH 3T3 (v-Src/3T3), H-Ras transformed NIH 3T3 (H-Ras/3T3), and vector NIH 3T3 cells were grown in the presence of 10 μM cucurbitacin A, cucurbitacin I, withacnistin mixture, or DMSO vehicle control. After 24 hours, cells were harvested by trypsinization and counted via trypan blue exclusion assay to determine cellular viability. In all, 75,000-150,000 cells (depending on cell line) were then spun onto glass slides using a Cytospin 3 centrifuge (Thermo Shandon Inc., Pittsburgh, Pa., USA). After fixing cells to the slides with 4% paraformaldehyde in PBS, pH 7.5, for 1 h at room temperature, cells were labeled for apoptotic DNA strand breaks by TUNEL reaction using an in situ cell death detection kit (Roche Applied Science, Indianapolis, Ind., USA) according to the manufacturer's instructions, then mounted in Vectashield mounting medium (Vector Laboratories, Burlingame, Calif., USA) containing 4′,6-diamidino-2-phenylindole (DAPI) to counterstain DNA. Fluorescein-labeled DNA strand breaks (TUNEL-positive cells) were then visualized using a fluorescent microscope (Leica Microsystems Inc., Bannockburn, Ill., USA) and pictures taken with a digital camera (Diagnostic Instruments, Inc., Sterling Heights, Mich., USA). TUNELpositive nuclei were counted and compared to DAPI-stained nuclei to determine the percent induction of apoptosis by the different cucurbitacin compounds. Statistical significance between control and treated tumors were evaluated by using Student's t-test.
as §4, with “methods. […]” for “methods.”

Src kinase = Src kinase (Homo sapiens, UniProt P12931); conditions: Blaskovich et al. 2003; cited from earlier work
Src kinase, sequence (P12931 whole entry): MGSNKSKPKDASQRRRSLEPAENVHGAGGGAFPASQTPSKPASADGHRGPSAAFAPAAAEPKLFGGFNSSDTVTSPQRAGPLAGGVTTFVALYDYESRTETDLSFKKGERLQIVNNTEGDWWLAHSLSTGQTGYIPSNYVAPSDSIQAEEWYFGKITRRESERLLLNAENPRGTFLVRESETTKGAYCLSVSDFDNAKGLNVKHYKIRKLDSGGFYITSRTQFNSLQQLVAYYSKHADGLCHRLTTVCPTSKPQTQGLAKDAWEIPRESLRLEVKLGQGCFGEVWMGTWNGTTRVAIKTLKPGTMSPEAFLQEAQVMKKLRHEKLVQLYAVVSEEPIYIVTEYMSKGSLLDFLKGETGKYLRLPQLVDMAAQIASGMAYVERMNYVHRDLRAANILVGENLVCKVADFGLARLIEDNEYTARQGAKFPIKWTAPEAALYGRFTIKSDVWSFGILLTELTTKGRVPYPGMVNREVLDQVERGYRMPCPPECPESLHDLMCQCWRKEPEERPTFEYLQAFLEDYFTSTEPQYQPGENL

MDA-MB-435 cells = assay: TUNEL apoptosis assay, MDA-MB-435; format: cell-based, human; conditions: 10 μM withacnistin mixture, 24 hours
Description: as §5, with “Fluorescein-labeled DNA strand breaks (TUNEL-positive cells) were then visualized using a fluorescent microscope (Leica Microsystems Inc., Bannockburn, Ill., USA) and pictures taken with a digital camera (Diagnostic Instruments, Inc., Sterling Heights, Mich., USA).” left out, “t-test. […]” for “t-test.”

MDA-MB-453 cells = assay: TUNEL apoptosis assay, MDA-MB-453; format: cell-based, human; conditions: 10 μM withacnistin mixture, 24 hours
Description: as §5, with “Fluorescein-labeled DNA strand breaks (TUNEL-positive cells) were then visualized using a fluorescent microscope (Leica Microsystems Inc., Bannockburn, Ill., USA) and pictures taken with a digital camera (Diagnostic Instruments, Inc., Sterling Heights, Mich., USA).” left out, “t-test. […]” for “t-test.”

SOCS3 = SOCS3 levels in cancer cell lines; format: cell-based, human; conditions: A549 cells
Description: Activation of STAT3 occurs through its tyrosine phosphorylation. Inactivation of STAT3 can occur through several mechanisms including dephosphorylation by phosphotyrosine protein phosphatases as well as blocking STAT3 activation by SOCS3, which binds and prevents kinases from activating STAT3. To determine whether Wit also affects negative regulators of STAT3, its effects on SOCS3 were determined. To this end, A549 cells were first treated with Wit for various periods of time and its effects on both P-STAT3 and SOCS3 were determined. […] However, by 24 hours, Wit suppressed both P-STAT3 and total STAT3 levels (data not shown). […] It is important to note that WM had little effect on […] protein levels (FIGS. 11A and 11C).

SMILES | levels of P-STAT3 (phosphotyrosine-STAT3; A549 cells) | IC50 (phosphotyrosine-STAT3; A549 cells) [µM] | IC50 (phosphotyrosine-STAT3; MDA-MB-435 cells) [µM] | IC50 (phosphotyrosine-STAT3; MDA-MB-468 cells) [µM] | levels of P-JAK2 (phosphotyrosine-JAK2; A549 cells) | IC50 (phosphotyrosine-JAK2; A549 cells) [nM] | IC50 (phosphotyrosine-JAK2; MDA-MB-435 cells) [nM] | IC50 (phosphotyrosine-JAK2; MDA-MB-468 cells) [nM] | tumor cell death (trypan blue exclusion) (A549 cells [1]) [%] | apoptosis (TUNEL) (A549 cells [2]) [%] | P-STAT3 levels (phosphotyrosine-STAT3) | P-JAK2 levels (phosphotyrosine-JAK2) | also measured
CC(=O)OC(C)(C)/C=C/C(=O)[C@](C)(O)[C@H]1[C@H](O)C[C@@]2(C)[C@@H]3CC=C4[C@@H](C[C@H](O)C(=O)C4(C)C)[C@]3(CO)C(=O)C[C@]12C [Cuc A, cucurbitacin A] | had no effect; also recorded: little inhibitory activity | > 10 | > 10 | > 10 | suppressed; also recorded: potently inhibited | 1500 ± 700 | 650 ± 50 | 860 | 11 | 5 |  |  | phosphotyrosine levels of JNK1 (phospho-JNK): little inhibitory activity
CC(C)(O)/C=C/C(=O)[C@](C)(O)[C@H]1[C@H](O)C[C@@]2(C)[C@@H]3CC=C4[C@@H](C=C(O)C(=O)C4(C)C)[C@]3(C)C(=O)C[C@]12C [Cuc I, cucurbitacin I] | inhibited | 0.8 ± 0.7 | 4.6 ± 1.9 | 7.5 ± 1.5 | inhibited | 250 ± 90 | 180 ± 70 | 400 ± 260 |  |  | suppressed the levels of both | suppressed the levels of both | inhibition of Src kinase in vitro (Src kinase): not inhibited
CC(=O)OC[C@]12CC[C@H]3[C@@H](C[C@H]4O[C@]45[C@@H](O)C=CC(=O)[C@]35C)[C@@H]1CC[C@@H]2[C@H](C)[C@H]1CC(C)=C(C)C(=O)O1 [withacnistin] |  | 3.7 ± 1.7 | 0.9 ± 0.6 | 1.4 ± 0.7 |  | > 10000 | > 10000 | > 10000 | 60 | 28 | suppressed | but not P-JAK2 | P-STAT3 (phosphotyrosine-STAT3; A549 and MDA-MB468 cells, 4-hour treatment (FIGS. 7A, 7B)): inhibit; potency compared with the withacnistin mixture (P-STAT3 suppression) (phosphotyrosine-STAT3; listed as W): slightly more potent than WM; potency compared with the withacnistin mixture (P-STAT3 suppression) (phosphotyrosine-STAT3; listed as pure withacnistin): more potent than the withacnistin mixture; increase of percentage of apoptotic tumor cells compared to vehicle-treated control (A549 cells [2]; 10 μM withacnistin mixture, 24 hours): 27.4 fold; increase of percentage of apoptotic cells compared to vehicle control (MDA-MB-435 cells): 25.9 fold; increase of percentage of apoptotic cells compared to vehicle control (MDA-MB-453 cells): 4.7 fold; levels of SOCS3 (SOCS3): induced; onset of SOCS3 induction (SOCS3): detectable only after two hours
